Consider four compounds from US20040086901A1, “Database for analyzing gene function and method of analyzing gene function by dspa” (priority 2000, published 2004).

Holding throughout (format): cell-based, mouse
Assay [1] concerns NIH3T3 cells overexpressing cystatin alpha. Description: MTT cell viability, cystatin alpha overexpressing cells vs parental line. To be noted: cystatin alpha high-expressing cells / parental cell line, 3 to 4 days. The procedure:
(§1) With regard to the function-known genes, the genes shown in the left column of Table 2 were used. With regard to the drugs, those shown in Table 1 were dissolved in DMSO to an extent of 100-fold of the maximum concentration for the search of the drugs and used. With regard to the cells, incubated NIH3T3 or ras-NIH3T3 cells were used.
(§2) Full-length cDNA of each function-known genes was incorporated into an expression vector (pRc-CMV, etc.) and transfected into NIH3T3 cells by a common method. Transformed cells were isolated using the resistance to G-418 as an index and the expression of the transfected gene in each cell was investigated by Western blotting method to select a highly expressing line.
(§3) Cell viabilities were measured according to the following procedures.
(§4) 1) From the 2nd to the 11th rows of a 96-well plate were filled with DMEM (50 μl). The 12th row was filled with 100 μl of DMEM.
(§5) 2) The 1st row was filled with 98 μl of DMEM.
(§6) 3) Drugs (2 μl each) were added into the 1st row.
(§7) 4) Continuous double-dilution was conducted from the 1st to the 9th rows. Fifty μl were taken out from the 9th row and discarded. The plate was preserved in a CO2 incubator.
(§8) 5) Cells (each high-expressing cells and the parental cell line) were detached from the medium using a trypsin solution, suspended in 10% CS-DMEM and transferred to a test tube and cell numbers (cell/ml) were counted.
(§9) 6) The cells were diluted to a concentration of 1×10^5 cells/ml, and 50 μl of the cell suspension were added to the 1st to the 11th rows of the plate followed by gently stirring.
(§10) 7) The plate was transferred to the CO2 incubator and incubated for 3 to 4 days.
(§11) 8) MTT (5 mg/ml in PBS) (10 μl) was added to the 1st to the 12th rows of the plate and incubated in the CO2 incubator at 37° C. for 4 hours.
(§12) 9) A reaction stop solution (0.04N HCl in isopropanol) (150 μl) was added followed by mixing well and being allowed to stand at room temperature for about 2 hours.
(§13) 10) Coloration of formazan which was a metabolite of the MTT dye was measured using a microplate reader. The measurement wavelength was 574 nm and the reference wavelength was 655 nm. The 10th and the 11th rows of the plate were 100% controls and the 12th row was a 0% control.
(§14) As an index for the sensitivity of highly gene-expressing cells and the parental cell line to various drugs, each of the IC40 values thereof was specified and ratios of the IC40 values were calculated. FIG. 2 and FIG. 3 are the examples where ratios of IC40 values were calculated from a curve showing the dependency on the concentration of the chemical versus the viability. After that, logarithmic values of ratios of IC40 values were calculated from each gene.

Assay [2] concerns NIH3T3 cells overexpressing v-src. Description: MTT cell viability, v-src overexpressing cells vs parental line. To be noted: v-src high-expressing cells / parental cell line, 3 to 4 days. How it is done: as §1, §2, §3, §4, §5, §6, §7, §8, §9, §10, §11, §12, §13, §14
Assay [3] has as its system NIH3T3 cells overexpressing C/EBPb. Description: MTT cell viability, C/EBPb overexpressing cells vs parental line. To be noted: C/EBPb high-expressing cells / parental cell line, 3 to 4 days. How it is done:
as §1, §2, §3, §4, §5, §6, §7, §8, §9, §10, §11, §12, §13
(§15) As an index for the sensitivity of highly gene-expressing cells and the parental cell line to various drugs, each of the IC40 values thereof was specified and ratios of the IC40 values were calculated. […] After that, logarithmic values of ratios of IC40 values were calculated from each gene.

Assay [4] deals with NIH3T3 cells overexpressing DAN. Put plainly: MTT cell viability, DAN overexpressing cells vs parental line. Particulars: DAN high-expressing cells / parental cell line, 3 to 4 days. The procedure:
as §1, §2, §3, §4, §5, §6, §7, §8, §9, §10, §11, §12, §13, §14

In assay [5] the test system is NIH3T3 cells overexpressing PDGF-R. Put plainly: MTT cell viability, PDGF-R overexpressing cells vs parental line. Particulars: PDGF-R high-expressing cells / parental cell line, 3 to 4 days. The procedure: as §1, §2, §3, §4, §5, §6, §7, §8, §9, §10, §11, §12, §13, §14
Assay [6] has as its system NIH3T3 cells overexpressing C/EBPa. Put plainly: MTT cell viability, C/EBPa overexpressing cells vs parental line. Particulars: C/EBPa high-expressing cells / parental cell line, 3 to 4 days. The procedure:
as §1, §2, §3, §4, §5, §6, §7, §8, §9, §10, §11, §12, §13, §15

Assay [7] concerns NIH3T3 cells overexpressing coup. Description: MTT cell viability, coup overexpressing cells vs parental line. To be noted: coup high-expressing cells / parental cell line, 3 to 4 days. How it is done:
as §1, §2, §3, §4, §5, §6, §7, §8, §9, §10, §11, §12, §13, §14

Assay [8] concerns NIH3T3 cells overexpressing PDGF-R-Del. Description: MTT cell viability, PDGF-R-Del overexpressing cells vs parental line. Particulars: PDGF-R-Del high-expressing cells / parental cell line, 3 to 4 days. How it is done: as §1, §2, §3, §4, §5, §6, §7, §8, §9, §10, §11, §12, §13, §14
In assay [9] the test system is NIH3T3 cells overexpressing Ha-ras. Description: MTT cell viability, drug sensitivity of Ha-ras overexpressing cells vs parental line. Particulars: Ha-ras high-expressing cells / parental cell line, 3 to 4 days. How it is done: as §1, §2, §3, §4, §5, §6, §7, §8, §9, §10, §11, §12, §13, §15
The test system of assay [10] is NIH3T3 cells overexpressing HSP4O. Put plainly: MTT cell viability, HSP4O overexpressing cells vs parental line. Particulars: HSP4O high-expressing cells / parental cell line, 3 to 4 days. How it is done:
as §1, §2, §3, §4, §5, §6, §7, §8, §9, §10, §11, §12, §13, §14

The test system of assay [11] is NIH3T3 cells overexpressing CP-antisense. Put plainly: MTT cell viability, CP-antisense cells vs parental line. Particulars: 3 to 4 days. How it is done:
as §1, §2, §3, §4, §5, §6, §7, §8, §9, §10, §11, §12, §13, §14

Assay [12] concerns NIH3T3 cells overexpressing m-calpain. Description: MTT cell viability, m-calpain overexpressing cells vs parental line. To be noted: m-calpain high-expressing cells / parental cell line, 3 to 4 days. The procedure: as §1, §2, §3, §4, §5, §6, §7, §8, §9, §10, §11, §12, §13, §15
Assay [13] has as its system NIH3T3 cells overexpressing JNK-DN. Description: MTT cell viability, JNK-DN overexpressing cells vs parental line. To be noted: JNK-DN high-expressing cells / parental cell line, 3 to 4 days. The procedure: as §1, §2, §3, §4, §5, §6, §7, §8, §9, §10, §11, §12, §13, §14
For assay [14], the system named is NIH3T3 cells overexpressing PKCalpha-KN. Description: MTT cell viability, PKCalpha-KN overexpressing cells vs parental line. Particulars: 3 to 4 days. How it is done:
as §1, §2, §3, §4, §5, §6, §7, §8, §9, §10, §11, §12, §13, §15

For assay [15], the system named is NIH3T3 cells overexpressing p38-DN. Put plainly: MTT cell viability, p38-DN overexpressing cells vs parental line. Particulars: p38-DN high-expressing cells / parental cell line, 3 to 4 days. The procedure: as §1, §2, §3, §4, §5, §6, §7, §8, §9, §10, §11, §12, §13, §15
The subject of assay [16] is NIH3T3 cells overexpressing RhoA-DN. Put plainly: MTT cell viability, RhoA-DN overexpressing cells vs parental line. To be noted: RhoA-DN high-expressing cells / parental cell line, 3 to 4 days. The procedure:
as §1, §2, §3, §4, §5, §6, §7, §8, §9, §10, §11, §12, §13, §15

Assay [17] concerns NIH3T3 cells overexpressing PKCepsilon-KN. Put plainly: MTT cell viability, PKCepsilon-KN overexpressing cells vs parental line. To be noted: 3 to 4 days. The procedure: as §1, §2, §3, §4, §5, §6, §7, §8, §9, §10, §11, §12, §13, §15
The subject of assay [18] is NIH3T3 cells overexpressing TK. Description: MTT cell viability, TK overexpressing cells vs parental line. To be noted: TK high-expressing cells / parental cell line, 3 to 4 days. The procedure:
as §1, §2, §3, §4, §5, §6, §7, §8, §9, §10, §11, §12, §13, §14

Assay [19] deals with NIH3T3 cells overexpressing HNF1. Put plainly: MTT cell viability, HNF1 overexpressing cells vs parental line. To be noted: HNF1 high-expressing cells / parental cell line, 3 to 4 days. How it is done:
as §1, §2, §3, §4, §5, §6, §7, §8, §9, §10, §11, §12, §13, §15

The mark [20] stands for this setting: PKCalpha-KN (first of two lines) high-expressing cells / parental cell line.
Setting [21] is: PKCalpha-KN (second of two lines) high-expressing cells / parental cell line.
Where [22] appears, read: PKCepsilon-KN (first of two lines) high-expressing cells / parental cell line.
[23] abbreviates: PKCepsilon-KN (second of two lines) high-expressing cells / parental cell line.

For the compound `C=CC1=C(C)c2cc3[n-]c(cc4nc(cc5[n-]c(cc1n2)c(C)c5CCC(=O)O)C(CCC(=O)O)=C4C)c(C)c3C=C.[Cl-].[Cl-].[Sn+4]` [SnPP], the “logarithmic value of ratio of IC40 values” is recorded as 0.00 in assay [1]; −0.17 in assay [2]; −0.50 in [3]; −0.49 in assay [4]; −0.07 in [5]; 0.00 in assay [6]. The “logarithmic value of ratio of IC40 values” in assay [7] is recorded as 0.51; in [8] it was 0.08; in assay [9], 0.28; in assay [10], 0.28; in assay [11], 0.10; in assay [12], −0.07. In addition, the “logarithmic value of ratio of IC40 values” in assay [13] was −0.11; in [14] (setting [20]), −0.14; in [14] (setting [21]), 0.00; in assay [15], 0.10; in [16], 0.08; in [17] (setting [22]), 0.27. In addition, the “logarithmic value of ratio of IC40 values” in assay [17] (setting [23]) was 0.24; in [18], 0.00; in [19], 0.138.
On to `O=[As]O` [NaAsO2, sodium arsenite], for which the “logarithmic value of ratio of IC40 values” is recorded as −0.05 in assay [1]; 0.11 in assay [2]; 0.41 in [3]; −0.15 in [4]; 0.14 in assay [5]; −0.40 in assay [6]. Moreover, the “logarithmic value of ratio of IC40 values” in assay [7] is recorded as −0.19; in assay [8], 0.00; in assay [9], 0.04; in [10], −0.02; in assay [11] it was 0.02; in [12], −0.16. The “logarithmic value of ratio of IC40 values” in [13] is recorded as −0.07; in [14] (setting [20]), 0.16; in assay [14] (setting [21]), 0.22; in assay [15], 0.00; in [16], 0.00; in assay [17] (setting [22]), −0.07. The “logarithmic value of ratio of IC40 values” in assay [17] (setting [23]) is listed as 0.35; in assay [18] it was 0.18; in [19], −0.14.
For `CN[C@@H]1C[C@H]2O[C@@](C)([C@@H]1OC)n1c3ccccc3c3c4c(c5c6ccccc6n2c5c31)C(=O)NC4` [Staurosporine], the “logarithmic value of ratio of IC40 values” in assay [1] is given as 0.30; in assay [2], −0.05; in [3], −0.23; in assay [4], 0.48; in [5], 0.24; in assay [7], 0.08. Besides, the “logarithmic value of ratio of IC40 values” in assay [8] is listed as 0.28; in [9], 0.30; in assay [10] it was 0.30; in assay [11] it was −0.15; in [13], 0.14; in assay [15] it was −0.05. For the same compound, the “logarithmic value of ratio of IC40 values” in assay [16] was 0.14; in assay [18], 0.46.
On to `O=CN/C=C/c1cc(O)ccc1O` [Erbstatin, erbstatin], for which the “logarithmic value of ratio of IC40 values” in assay [1] is listed as 0.08; in assay [2], −0.05; in assay [3] it was 0.48; in assay [4], 0.20; in [6], 0.11; in assay [7], 0.33. Besides, the “logarithmic value of ratio of IC40 values” in [8] was 0.00; in [9], 0.08; in [10], 0.00; in [11], 0.06; in assay [12], 0.00; in [13], 0.11. The “logarithmic value of ratio of IC40 values” is given as 0.00 in [14] (setting [21]); 0.06 in [15]; −0.02 in assay [16]; −0.12 in [17] (setting [22]); 0.00 in [17] (setting [23]); 0.05 in assay [18]. Further, in assay [19], the “logarithmic value of ratio of IC40 values” is reported as 0.391.
